Laboratory results taken from ChEMBL document CHEMBL1149100, “New 2,4-diamino-5-(2',5'-substituted benzyl)pyrimidines as potential drugs against opportunistic infections of AIDS and other immune disorders. Synthesis and species-dependent antifolate activity” (J Med Chem, 2004).
In brackets after ≈: the same amount, converted by molar mass.

test system: Mycobacterium avium; assay: Minimum inhibitory concentration required against Mycobacterium avium isolate from patient number MAC100; format: functional

SMILES | MIC [µg/mL]
COc1ccc(C#CCOc2ccccc2C(=O)O)cc1Cc1cnc(N)nc1N | > 32
COc1ccc(C#CCCC(=O)O)cc1Cc1cnc(N)nc1N | 8 (≈ 24.5 µM)
COc1ccc(OCCCCCCCCC(=O)O)cc1Cc1cnc(N)nc1N | 8 (≈ 19.9 µM)
COc1ccc(OCCCC(=O)O)cc1Cc1cnc(N)nc1N | 16 (≈ 48.1 µM)
COc1ccc(OCCCCCC(=O)O)cc1Cc1cnc(N)nc1N | 16 (≈ 44.4 µM)
COc1ccc(OCCCCCCCC(=O)O)cc1Cc1cnc(N)nc1N | 8 (≈ 20.6 µM)
COc1ccc(C#CCCCCC(=O)O)cc1Cc1cnc(N)nc1N | 4 (≈ 11.3 µM)

test system: Mycobacterium avium; assay: Concentration of compound required against Mycobacterium avium; Range is 2-16 ug/mL; format: functional, organism-based

SMILES | Concentration [µg/mL]
COc1ccc(OCCCCCCCCC(=O)O)cc1Cc1cnc(N)nc1N | 16

test system: Mycobacterium avium; assay: Minimum inhibitory concentration required against Mycobacterium avium isolate from patient number MAC16; format: functional

SMILES | MIC [µg/mL]
COc1ccc(C#CCOc2ccccc2C(=O)O)cc1Cc1cnc(N)nc1N | > 32
COc1ccc(C#CCCC(=O)O)cc1Cc1cnc(N)nc1N | 16 (≈ 49 µM)
COc1ccc(OCCCCCCCCC(=O)O)cc1Cc1cnc(N)nc1N | 2 (≈ 4.97 µM)
COc1ccc(OCCCC(=O)O)cc1Cc1cnc(N)nc1N | 32 (≈ 96.3 µM)
COc1ccc(OCCCCCC(=O)O)cc1Cc1cnc(N)nc1N | 8 (≈ 22.2 µM)
COc1ccc(OCCCCCCCC(=O)O)cc1Cc1cnc(N)nc1N | 2 (≈ 5.15 µM)
COc1ccc(C#CCCCCC(=O)O)cc1Cc1cnc(N)nc1N | 2 (≈ 5.64 µM)

test system: Mycobacterium avium; assay: Minimum inhibitory concentration required against Mycobacterium avium isolate from patient number MAC109; format: functional

SMILES | MIC [µg/mL]
COc1ccc(C#CCOc2ccccc2C(=O)O)cc1Cc1cnc(N)nc1N | > 32
COc1ccc(C#CCCC(=O)O)cc1Cc1cnc(N)nc1N | 16 (≈ 49 µM)
COc1ccc(OCCCCCCCCC(=O)O)cc1Cc1cnc(N)nc1N | 4 (≈ 9.94 µM)
COc1ccc(OCCCC(=O)O)cc1Cc1cnc(N)nc1N | 32 (≈ 96.3 µM)
COc1ccc(OCCCCCC(=O)O)cc1Cc1cnc(N)nc1N | 8 (≈ 22.2 µM)
COc1ccc(OCCCCCCCC(=O)O)cc1Cc1cnc(N)nc1N | 2 (≈ 5.15 µM)
COc1ccc(C#CCCCCC(=O)O)cc1Cc1cnc(N)nc1N | 4 (≈ 11.3 µM)

test system: Mycobacterium avium; assay: Minimum inhibitory concentration required against Mycobacterium avium isolate from patient number MAC101; format: functional

SMILES | MIC [µg/mL]
COc1ccc(C#CCOc2ccccc2C(=O)O)cc1Cc1cnc(N)nc1N | > 32
COc1ccc(C#CCCC(=O)O)cc1Cc1cnc(N)nc1N | 8 (≈ 24.5 µM)
COc1ccc(OCCCCCCCCC(=O)O)cc1Cc1cnc(N)nc1N | 2 (≈ 4.97 µM)
COc1ccc(OCCCC(=O)O)cc1Cc1cnc(N)nc1N | 16 (≈ 48.1 µM)
COc1ccc(OCCCCCC(=O)O)cc1Cc1cnc(N)nc1N | 8 (≈ 22.2 µM)
COc1ccc(OCCCCCCCC(=O)O)cc1Cc1cnc(N)nc1N | 4 (≈ 10.3 µM)
COc1ccc(C#CCCCCC(=O)O)cc1Cc1cnc(N)nc1N | 2 (≈ 5.64 µM)

test system: Mycobacterium avium; assay: Minimum inhibitory concentration required against Mycobacterium avium isolate from patient number MAC108; format: functional

SMILES | MIC [µg/mL]
COc1ccc(C#CCOc2ccccc2C(=O)O)cc1Cc1cnc(N)nc1N | > 32
COc1ccc(C#CCCC(=O)O)cc1Cc1cnc(N)nc1N | 16 (≈ 49 µM)
COc1ccc(OCCCCCCCCC(=O)O)cc1Cc1cnc(N)nc1N | > 32
COc1ccc(OCCCC(=O)O)cc1Cc1cnc(N)nc1N | 16 (≈ 48.1 µM)
COc1ccc(OCCCCCC(=O)O)cc1Cc1cnc(N)nc1N | 32 (≈ 88.8 µM)
COc1ccc(OCCCCCCCC(=O)O)cc1Cc1cnc(N)nc1N | 32 (≈ 82.4 µM)
COc1ccc(C#CCCCCC(=O)O)cc1Cc1cnc(N)nc1N | > 32

test system: Mycobacterium avium; assay: Concentration of compound required against Mycobacterium avium; Range is 2-32; format: functional, organism-based

SMILES | Concentration [µg/mL]
COc1ccc(OCCCCCCCC(=O)O)cc1Cc1cnc(N)nc1N | 32
COc1ccc(C#CCCCCC(=O)O)cc1Cc1cnc(N)nc1N | 32

test system: Mycobacterium avium; assay: Minimum inhibitory concentration required for 90 percent inhibition of Mycobacterium avium isolate; format: functional

SMILES | MIC90 [µg/mL]
COc1ccc(C#CCCC(=O)O)cc1Cc1cnc(N)nc1N | 16 (≈ 49 µM)
COc1ccc(OCCCCCCCCC(=O)O)cc1Cc1cnc(N)nc1N | 8 (≈ 19.9 µM)
COc1ccc(OCCCCCC(=O)O)cc1Cc1cnc(N)nc1N | 32 (≈ 88.8 µM)
COc1ccc(OCCCCCCCC(=O)O)cc1Cc1cnc(N)nc1N | 8 (≈ 20.6 µM)
COc1ccc(C#CCCCCC(=O)O)cc1Cc1cnc(N)nc1N | 16 (≈ 45.1 µM)

test system: Mycobacterium avium; assay: Minimum inhibitory concentration required for 50 percent inhibition of Mycobacterium avium isolate; format: functional

SMILES | MIC50 [µg/mL]
COc1ccc(C#CCCC(=O)O)cc1Cc1cnc(N)nc1N | 8 (≈ 24.5 µM)
COc1ccc(OCCCCCCCCC(=O)O)cc1Cc1cnc(N)nc1N | 4 (≈ 9.94 µM)
COc1ccc(OCCCCCC(=O)O)cc1Cc1cnc(N)nc1N | 4 (≈ 11.1 µM)
COc1ccc(OCCCCCCCC(=O)O)cc1Cc1cnc(N)nc1N | 4 (≈ 10.3 µM)
COc1ccc(C#CCCCCC(=O)O)cc1Cc1cnc(N)nc1N | 8 (≈ 22.6 µM)

test system: Mycobacterium avium; assay: Concentration of compound required against Mycobacterium avium; Range is 4-32; format: functional, organism-based

SMILES | Concentration [µg/mL]
COc1ccc(C#CCCC(=O)O)cc1Cc1cnc(N)nc1N | 32
COc1ccc(OCCCCCC(=O)O)cc1Cc1cnc(N)nc1N | 32
